# Counter-ions that a name gives are not always drawn.
# Columns and labels:
# [1] = tested on: bisected rat prostatic vas deferens
# α2-adrenoceptors = tested on: α2-adrenoceptors; parameters: species or system rat
molecule,measurement,setting,value
"COc1cc2nc(N3CCN(C(=O)c4ccco4)CC3)nc(N)c2cc1OC [prazosin, prazosin hydrochloride]",effect on second phase of the contraction,[1],inhibited
CCLIPACRRNHKKFC [truncated ρ-TIA],selective β1-adrenoceptor antagonist activity,β1-adrenoceptor,inactive
Cc1ccc(C(=O)Nc2ccc(S(=O)(=O)O)c3cc(S(=O)(=O)O)cc(S(=O)(=O)O)c23)cc1NC(=O)c1cccc(NC(=O)Nc2cccc(C(=O)Nc3cc(C(=O)Nc4ccc(S(=O)(=O)O)c5cc(S(=O)(=O)O)cc(S(=O)(=O)O)c45)ccc3C)c2)c1 [suramin],effect on initial phase of the contraction,[1]; 0.3 mM,sensitive
NC1=N[C@H](O)[C@H]2[C@H]3O[C@]4(O)O[C@@H]([C@@H](O)[C@@]2(N1)[C@@H]4O)[C@]3(O)CO [tetrodotoxin],effect on contractions evoked by field stimulation,[1],abolished
"NC[C@H](O)c1ccc(O)c(O)c1 [noradrenaline, (−)-noradrenaline bitartrate]",−log IC50 of noradrenaline for inhibition of the response to electrical stimulation,α2-adrenoceptors,5.96±0.052

# Reference: patent US6849601B1 (priority 1998, dated 2005)
